The values below come from patent US7807676B2, “Diketo-Piperazine and Piperidine derivatives as antiviral agents” (priority 2006, dated 2010).

Structures are written as SMILES. Bounds are passed on as bounds.

For this test, the system named is HIV-1 single-round infectious reporter virus. The test can be described thus: Single-round infectious HIV-1 luciferase reporter virus infection of HeLa CD4 cells (antiviral EC50). It counts as cell-based. Particulars: Human immunodeficiency virus 1, HeLa, read-out: EC50 Group from Table 3. The method in brief: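 Env-pseudotyped single-round HIV-1 reporter virus (env-deleted provirus with luciferase in place of nef, made in 293 cells) infected HeLa CD4 cells at MOI ~0.01 with compound present, up to 10 μM final. Luciferase luminescence read after 72 h at 37 °C; EC50 from four-parameter logistic fit of % inhibition over 10 concentrations.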
With `CN(C)CCCNC(=O)c1cc(-c2ncc(F)c3c(C(=O)C(=O)N4CCN(c5c[nH]nc5-c5ccccc5)CC4)c[nH]c23)n[nH]1` [B-53], the EC50 was less than 500 nM.

On to `O=C(NCCN1CCOCC1)c1cc(-c2ncc(F)c3c(C(=O)C(=O)N4CCN(c5c[nH]nc5-c5ccccc5)CC4)c[nH]c23)n[nH]1` [B-54], for which the EC50 was less than 500 nM.

As for `O=C(NCCO)c1ncc(F)c2c(C(=O)C(=O)N3CCN(c4nnnn4-c4ccccc4)CC3)c[nH]c12` [B-55], the EC50 was less than 500 nM.

Regarding `CN(C)c1cnc(C(=O)NCCO)c2[nH]cc(C(=O)C(=O)N3CCN(c4nnnn4-c4ccccc4)CC3)c12` [B-56], the EC50 was less than 500 nM.

Turning to `CCOC(=O)c1ncc(F)c2c(C(=O)C(=O)N3CCN(c4nnnn4-c4ccccc4)CC3)c[nH]c12` [B-57], the EC50 is less than 500 nM.

Turning to `COc1cnc(-c2csc(C3OCCO3)n2)c2[nH]cc(C(=O)C(=O)N3CCN(c4nnnn4-c4ccccc4)CC3)c12` [B-58], the EC50 was less than 500 nM.

As for `CNCc1nc(-c2ncc(OC)c3c(C(=O)C(=O)N4CCN(c5nnnn5-c5ccccc5)CC4)c[nH]c23)cs1` [B-59], the EC50 was less than 500 nM.

As for `CCOC(=O)c1cc(-c2ncc(F)c3c(C(=O)C(=O)N4CCN(c5nnnn5-c5ccccc5)CC4)cn(C)c23)nn1C` [B-60], the EC50 was less than 500 nM.

Consider `COc1cnc(-c2cncnc2)c2[nH]cc(C(=O)C(=O)N3CCN(c4nnnn4-c4ccccc4)CC3)c12` [B-63], for which the EC50 is less than 500 nM.

Take `COc1cnc(C(=O)NCCO)c2[nH]cc(C(=O)C(=O)N3CCN(c4nnnn4-c4ccccc4)CC3)c12` [B-64]: the EC50 was less than 500 nM.

For the molecule `CNC(=O)c1ncc(OC)c2c(C(=O)C(=O)N3CCN(c4nnnn4-c4ccccc4)CC3)c[nH]c12` [B-65], the concentration giving a half-maximal response (EC50) is less than 500 nM.

`COc1cnc(C(=O)NC2CC2)c2[nH]cc(C(=O)C(=O)N3CCN(c4nnnn4-c4ccccn4)CC3)c12` [B-66]: the EC50 was less than 500 nM.

As for `COc1cnc(-c2cc(CO)[nH]n2)c2[nH]cc(C(=O)C(=O)N3CCN(c4nnnn4-c4ccccn4)CC3)c12` [B-67], the EC50 is less than 500 nM.

With `COc1cnc(-c2cc(C(C)(C)O)[nH]n2)c2[nH]cc(C(=O)C(=O)N3CCN(c4nnnn4-c4ccccn4)CC3)c12` [B-68], the EC50 was less than 500 nM.

Take `COc1nc(-c2ncc(OC)c3c(C(=O)C(=O)N4CCN(c5nnnn5-c5ccccn5)CC4)c[nH]c23)cs1` [B-69]: the EC50 is less than 500 nM.

With `COc1cnc(-c2cscn2)c2[nH]cc(C(=O)C(=O)N3CCN(c4nnnn4-c4ccccn4)CC3)c12` [B-70], the concentration for a half-maximal effect (EC50) was less than 500 nM.

For `COc1cnc(-c2cncs2)c2[nH]cc(C(=O)C(=O)N3CCN(c4nnnn4-c4ccccn4)CC3)c12` [B-71], the EC50 was less than 500 nM.

Regarding `COc1cnc(-c2cc[nH]n2)c2[nH]cc(C(=O)C(=O)N3CCN(c4nnnn4-c4ccccn4)CC3)c12` [B-72], the EC50 is less than 500 nM.

With `COc1cnc(-c2ccn(C)n2)c2[nH]cc(C(=O)C(=O)N3CCN(c4nnnn4-c4ccccn4)CC3)c12` [B-73], the EC50 was less than 500 nM.

`COc1cnc(-c2ccn(CC(=O)O)n2)c2c1c(C(=O)C(=O)N1CCN(c3nnnn3-c3ccccn3)CC1)cn2CC(=O)O` [B-74]: the EC50 was more than 500 nM.

`COc1cnc(-c2ccn(CC(=O)O)n2)c2[nH]cc(C(=O)C(=O)N3CCN(c4nnnn4-c4ccccn4)CC3)c12` [B-75]: the EC50 is less than 500 nM.

For `COc1cnc(-c2ccn(CC(=O)N(C)C)n2)c2[nH]cc(C(=O)C(=O)N3CCN(c4nnnn4-c4ccccn4)CC3)c12` [B-76], the EC50 was more than 500 nM.

As for `CNC(=O)Cn1ccc(-c2ncc(OC)c3c(C(=O)C(=O)N4CCN(c5nnnn5-c5ccccn5)CC4)c[nH]c23)n1` [B-77], the 50% effective concentration (EC50) was less than 500 nM.

In the case of `CCC(O)(CC)c1cc(-c2ncc(OC)c3c(C(=O)C(=O)N4CCN(c5nnnn5-c5ccccn5)CC4)c[nH]c23)n[nH]1` [B-78], the EC50 is less than 500 nM.

Take `COc1cnc(-n2cc(Cl)cn2)c2[nH]cc(C(=O)C(=O)N3CCN(c4nnnn4-c4ccccn4)CC3)c12` [B-79]: the EC50 was less than 500 nM.

On to `COc1cnc(-n2cnc(NC(=O)C(C)(C)C)n2)c2[nH]cc(C(=O)C(=O)N3CCN(c4nnnn4-c4ccccn4)CC3)c12` [B-80], for which the EC50 was less than 500 nM.

`COc1cnc(-c2ccc(N3CCN(C(=O)OC(C)(C)C)CC3)cc2)c2[nH]cc(C(=O)C(=O)N3CCN(c4nnnn4-c4ccccn4)CC3)c12` [B-81]: the EC50 is less than 500 nM.

Turning to `COc1cnc(-c2ccc(N3CCNCC3)cc2)c2[nH]cc(C(=O)C(=O)N3CCN(c4nnnn4-c4ccccn4)CC3)c12` [B-82], the EC50 is less than 500 nM.

Regarding `COc1cnc(-c2ccc(N3CCN(C(=O)OC(C)C)CC3)cc2)c2[nH]cc(C(=O)C(=O)N3CCN(c4nnnn4-c4ccccn4)CC3)c12` [B-83], the EC50 is less than 500 nM.

For `COc1cnc(-c2ccc(N3CCN(C(=O)OCC(C)C)CC3)cc2)c2[nH]cc(C(=O)C(=O)N3CCN(c4nnnn4-c4ccccn4)CC3)c12` [B-84], the EC50 is less than 500 nM.

On to `CCOC(=O)N1CCN(c2ccc(-c3ncc(OC)c4c(C(=O)C(=O)N5CCN(c6nnnn6-c6ccccn6)CC5)c[nH]c34)cc2)CC1` [B-85], for which the EC50 is less than 500 nM.

With `COc1cnc(-c2ccc(N3CCN(C(=O)NC(C)(C)C)CC3)cc2)c2[nH]cc(C(=O)C(=O)N3CCN(c4nnnn4-c4ccccn4)CC3)c12` [B-86], the EC50 is less than 500 nM.

As to `COc1cnc(-c2ccc(N3CCN(C(=O)NC(C)C)CC3)cc2)c2[nH]cc(C(=O)C(=O)N3CCN(c4nnnn4-c4ccccn4)CC3)c12` [B-87], the EC50 was less than 500 nM.

`COc1ncc(-c2ncc(OC)c3c(C(=O)C(=O)N4CCN(c5nnnn5-c5ccccn5)CC4)c[nH]c23)s1` [B-88]: the EC50 is less than 500 nM.

With `CCOc1ncc(-c2ncc(OC)c3c(C(=O)C(=O)N4CCN(c5nnnn5-c5ccccn5)CC4)c[nH]c23)s1` [B-89], the EC50 is less than 500 nM.

With `COc1cnc(-c2cnc(C)s2)c2[nH]cc(C(=O)C(=O)N3CCN(c4nnnn4-c4ccccn4)CC3)c12` [B-90], the EC50 is less than 500 nM.

For the molecule `CCc1ncc(-c2ncc(OC)c3c(C(=O)C(=O)N4CCN(c5nnnn5-c5ccccn5)CC4)c[nH]c23)s1` [B-91], the EC50 is less than 500 nM.

In the case of `COc1cnc(Nc2ccncn2)c2[nH]cc(C(=O)C(=O)N3CCN(c4nnnn4-c4ccccn4)CC3)c12` [B-92], the EC50 is less than 500 nM.

`C[C@@H]1CN(c2nnnn2-c2ccccc2)C[C@H](C)N1C(=O)C(=O)c1c[nH]c2c(-n3ccnn3)ncc(F)c12` [C-1, 1-((2R,6S)-2,6-dimethyl-4-(1-phenyl-1H-tetrazol-5-yl)piperazin-1-yl)-2-(4-fluoro-7-(1H-1,2,3-triazol-1-yl)-1H-pyrrolo[2,3-c]pyridin-3-yl)ethane-1,2-dione]: the EC50 was less than 500 nM.

On to `COc1cnc(-n2cnc(C)n2)c2[nH]cc(C(=O)C(=O)N3CCN(c4ncccc4C#N)CC3)c12` [D-1], for which the EC50 is less than 500 nM.

Regarding `COc1cnc(-n2cnc(C)n2)c2[nH]cc(C(=O)C(=O)N3CCN(c4ncccc4I)CC3)c12` [D-2], the EC50 was less than 500 nM.

For the molecule `COc1cnc(-n2cnc(C)n2)c2[nH]cc(C(=O)C(=O)N3CCN(c4ncccc4C)CC3)c12` [D-3], the EC50 is less than 500 nM.

With `N#Cc1cccnc1N1CCN(C(=O)C(=O)c2c[nH]c3c(-n4ccnn4)ncc(F)c23)CC1` [D-4], the 50% effective concentration (EC50) is less than 500 nM.

As for `O=C(C(=O)N1CCN(c2ncccc2I)CC1)c1c[nH]c2c(-n3ccnn3)ncc(F)c12` [D-5], the concentration for a half-maximal effect (EC50) is less than 500 nM.

On to `Cc1cccnc1N1CCN(C(=O)C(=O)c2c[nH]c3c(-n4ccnn4)ncc(F)c23)CC1` [D-6], for which the EC50 was less than 500 nM.

By EC50 is commonly meant the concentration giving half of the maximal effect.
